In patent US6368788B1 (priority 1987, dated 2002):

Experiments:
[1] = Gingivitis; parameters: species or system human; conditions: in vivo
Procedure: Patients were treated for gingival disease by subcutaneous administration of L-Glu-L-Trp into the area of the gingiva. […] Approximately 160 patients were studied, 80 patients were treated with L-Glu-L-Trp and an equal number were treated using conventional therapy (control). […] Normalization of immunologic indices and coagulation in the L-Glu-L-Trp treated patients was correlated with favorable clinical outcome.

[2] = test system: Sarcoma 180 tumor; assay: Sarcoma 180 bilateral tumor size; assay type: in vivo, Swiss-Webster mice; conditions: for Mean Tumor Weight Left / Mean Tumor Weight Right: mean leg weight treated - normal control
Procedure: Anti-tumor activity of L-Glu-L-Trp was evaluated using the murine Sarcoma 180 tumor (ATCC CCL-8 CCRF S-180 II) injected at 2×10^6 cells/0.1 mL im into each rear flank of Swiss-Webster mice. Groups consisted of 10 animals. L-Glu-L-Trp was administered in a single 0.1 mL dose of either 10 μg/kg, 75 μg/kg, 250 μg/kg or 1000 μg/kg. Tumor size was evaluated by surgically removing and weighing the affected limbs, and comparing the weight with the weight of normal control (non-tumor) limbs. The first prophylactic drug regimen (PDR-1) consisted of 5 consecutive daily ip injections commencing on day -5 and ending of day -1. The second prophylactic drug regimen (PDR-2) consisted of 5 consecutive daily im injections to the left rear flank (tumor site) beginning on day -5 and ending on day -1. Sarcoma 180 cells were injected im on day 0. Saline 0.1 mL served as the negative control.

[3] = test system: hepatitis B; assay: Children with chronic persistent hepatitis B; assay type: in vivo, human; parameters: T-Lymphocytes (E-RFC): unit not given here
Procedure: In accord with a USSR Ministry of Health decision 125 children suffering with chronic persistent hepatitis B were entered into this trial over a two month period. Group 1 consisted of 35 children who received decaris immunomodulatory therapy; Group 2, 38 children who received thymalin treatments; Group 3, […] who received L-Glu-L-Trp; and, Group 4, 32 children who received only conventional symptom specific therapy.
L-Glu-L-Trp was administered at a dose of 2 μg/kg of body mass, im, daily for […], and a repeat (identical) course of treatment was administered 10 days after termination of the first course.

[4] = Non-Responders, After L-Glu-L-Trp (n = 7)
[5] = Responders, L-Glu-L-Trp Therapy (n = 12)

L-Glu-L-Trp
Clinical outcome [1]: arrest of gingival disease
Percent of Control Tumor Weight Left ([2]; PDR-1 ip, 10 μg/kg): 120%
Mean Tumor Weight Left ([2]; PDR-1 ip, 10 μg/kg): 3.0
Mean Tumor Weight Right ([2]; PDR-1 ip, 10 μg/kg): 2.9
Percent of Control Tumor Weight Left ([2]; PDR-1 ip, 75 μg/kg): 120%
Mean Tumor Weight Left ([2]; PDR-1 ip, 75 μg/kg): 3.0
Percent of Control Tumor Weight Right ([2]; PDR-1 ip, 75 μg/kg): 130%
Mean Tumor Weight Right ([2]; PDR-1 ip, 75 μg/kg): 3.0
Percent of Control Tumor Weight Left ([2]; PDR-1 ip, 250 μg/kg): 92%
Mean Tumor Weight Left ([2]; PDR-1 ip, 250 μg/kg): 2.3
Percent of Control Tumor Weight Right ([2]; PDR-1 ip, 250 μg/kg): 83%
Mean Tumor Weight Right ([2]; PDR-1 ip, 250 μg/kg): 1.9
Percent of Control Tumor Weight Left ([2]; PDR-1 ip, 1000 μg/kg): 52%
Mean Tumor Weight Left ([2]; PDR-1 ip, 1000 μg/kg): 1.3
Percent of Control Tumor Weight Right ([2]; PDR-1 ip, 1000 μg/kg): 43%
Mean Tumor Weight Right ([2]; PDR-1 ip, 1000 μg/kg): 1.0
Percent of Control Tumor Weight Left ([2]; PDR-2 im, 10 μg/kg): 96%
Mean Tumor Weight Left ([2]; PDR-2 im, 10 μg/kg): 2.4
Mean Tumor Weight Right ([2]; PDR-2 im, 10 μg/kg): 2.6
Percent of Control Tumor Weight Left ([2]; PDR-2 im, 75 μg/kg): 96%
Mean Tumor Weight Left ([2]; PDR-2 im, 75 μg/kg): 2.4
Percent of Control Tumor Weight Right ([2]; PDR-2 im, 75 μg/kg): 132%
Mean Tumor Weight Right ([2]; PDR-2 im, 75 μg/kg): 3.3
Percent of Control Tumor Weight Left ([2]; PDR-2 im, 250 μg/kg): 72%
Mean Tumor Weight Left ([2]; PDR-2 im, 250 μg/kg): 1.8
Percent of Control Tumor Weight Right ([2]; PDR-2 im, 250 μg/kg): 48%
Mean Tumor Weight Right ([2]; PDR-2 im, 250 μg/kg): 1.1
Percent of Control Tumor Weight Left ([2]; PDR-2 im, 1000 μg/kg): 48%
Mean Tumor Weight Left ([2]; PDR-2 im, 1000 μg/kg): 1.2
Percent of Control Tumor Weight Right ([2]; PDR-2 im, 1000 μg/kg): 57%
Mean Tumor Weight Right ([2]; PDR-2 im, 1000 μg/kg): 1.3
Tumor growth ([2]; prophylactic ip or im, 250 μg/kg and 1000 μg/kg): inhibited subsequent im tumor growth
Percent of Subjects Disease Free at 6 Months After Treatment ([3]; Group 1, Pre-Treatment ALCT Activity None): 100%
Percent of Subjects Disease Free at 6 Months After Treatment ([3]; Group 2, Pre-Treatment ALCT Activity Moderate): 80%
Percent of Subjects Disease Free at 6 Months After Treatment ([3]; Group 3, Pre-Treatment ALCT Activity High): 0%
ALCT Cytotoxic Index [3, 4]: 44.55 ± 6.8
ALCT: % of subjects [3, 4]: 57.14 ± 18.7%
Ratio OKT4^+/OKT8^+ [3, 4]: 0.82 ± 0.07
T-Lymphocytes (E-RFC) [3, 4]: 1382 ± 76 ×10^9
T-Lymphocytes (E-RFC) % Normal Value [3, 4]: (85%)
T-Lymphocytes (E-RFC) % of PBL [3, 4]: 56.7 ± 3.24 % of PBL
ALCT Cytotoxic Index [3, 5]: 50.4 ± 5.5
ALCT: % of subjects [3, 5]: 16.7 ± 13.2%
Ratio OKT4^+/OKT8^+ [3, 5]: 1.08 ± 0.07
T-Lymphocytes (E-RFC) [3, 5]: 1227 ± 65 ×10^9
T-Lymphocytes (E-RFC) % Normal Value [3, 5]: (76%)
T-Lymphocytes (E-RFC) % of PBL [3, 5]: 47.33 ± 2.2 % of PBL
Stable remission over 6 months ([3]; highest ALCT levels): 0%
Patients with increased E-RFC T-lymphocytes and ADCC decreased to normal (responders) ([3]; in vivo): about 63%
Stable remission over 6 months ([3]; moderate ALCT activity): 80%
Stable remission over 6 months ([3]; patients lacking demonstrable ALCT): One hundred percent
